Assay results: ChEMBL document CHEMBL1201862, “PubChem BioAssay data set” (2004)
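Dose response: 5 concentrations. Exposure: 48 h. Format: 96-well plates. Endpoint: linear interpolation; highest concentration if not reached. GI50 marks 50% less growth.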 Calls of active or inactive are those of the source. No stated cut-off is given here; in the data, active = GI50 up to about 1.1 µM and inactive = higher.

Legend:
Test in all cases: inhibition of tumour cell growth, NCI panel, 48 h
COLO 205 = system: COLO 205
IGROV-1 = system: IGROV-1
TK-10 = system: TK-10
LOX IMVI = system: LOX IMVI
SNB-75 = system: SNB-75
SK-OV-3 = system: SK-OV-3
K562 = system: K562
MOLT-4 = system: MOLT-4
NCI-H460 = system: NCI-H460
HOP-62 = system: HOP-62
MCF7 = system: MCF7
UACC-257 = system: UACC-257
KM12 = system: KM12
UO-31 = system: UO-31
SR = system: SR
ACHN = system: ACHN
786-0 = system: 786-0
UACC-62 = system: UACC-62
CCRF-CEM = system: CCRF-CEM
MDA-N = system: MDA-N

| Structure (SMILES) | GI50 (COLO 205) | GI50 (IGROV-1) | GI50 (TK-10) | GI50 (LOX IMVI) | GI50 (SNB-75) | GI50 (SK-OV-3) | GI50 (K562) | GI50 (MOLT-4) | GI50 (NCI-H460) | GI50 (HOP-62) | GI50 (MCF7) | GI50 (UACC-257) | GI50 (KM12) | GI50 (UO-31) | GI50 (SR) | GI50 (ACHN) | GI50 (786-0) | GI50 (UACC-62) | GI50 (CCRF-CEM) | GI50 (MDA-N) |
| --- | --- | --- | --- | --- | --- | --- | --- | --- | --- | --- | --- | --- | --- | --- | --- | --- | --- | --- | --- | --- |
| CC(=O)CCNc1ccc(-c2cc(-c3ccc(N(C)C)cc3)nc3ccc4ccccc4c23)cc1 | 26.9 µM (inactive) | 14.5 µM (inactive) | > 100 µM (inactive) | > 100 µM (inactive) | 9.84 µM (inactive) | > 100 µM (inactive) | 19.6 µM (inactive) | 6.76 µM (inactive) | 35.2 µM (inactive) | > 100 µM (inactive) | 27.1 µM (inactive) | > 100 µM (inactive) | 27.5 µM (inactive) | 23.5 µM (inactive) | 7.11 µM (inactive) | 17.8 µM (inactive) | 22.4 µM (inactive) | > 60.8 µM (inactive) | 8.07 µM (inactive) | > 100 µM (inactive) |
| Clc1ccccc1C(Nc1cnccn1)Nc1cnccn1 | > 100 µM (inactive) | > 100 µM (inactive) | > 100 µM (inactive) | > 100 µM (inactive) | 96.6 µM (inactive) | > 100 µM (inactive) | 4.12 µM (inactive) | 23.6 µM (inactive) | > 100 µM (inactive) | > 100 µM (inactive) | > 100 µM (inactive) | > 100 µM (inactive) | > 100 µM (inactive) | > 100 µM (inactive) | 0.07 µM (active) | > 100 µM (inactive) | > 100 µM (inactive) | > 100 µM (inactive) | 0.675 µM (active) | 23.2 µM (inactive) |
| S=C(NCc1ccccc1)N/N=C/c1ccccn1 | 0.104 µM (active) | 1.58 µM (inactive) | 12.9 µM (inactive) | 1.53 µM (inactive) | 3.91 µM (inactive) | 3.94 µM (inactive) | 0.0815 µM (active) | 0.0612 µM (active) | 2.04 µM (inactive) | 3.7 µM (inactive) | 0.834 µM (active) | 2.42 µM (inactive) | 4.91 µM (inactive) | 1.25 µM (inactive) | 0.29 µM (active) | 1.27 µM (inactive) | 1.59 µM (inactive) | 3.27 µM (inactive) | < 0.0409 µM (active) | 8.53 µM (inactive) |
| Cc1ccc2c(c1C)C(=O)/C(=C/c1cccc(C)c1C(=O)O)C2 | > 100 µM (inactive) | > 86.7 µM (inactive) | > 100 µM (inactive) | 44.1 µM (inactive) | 69.3 µM (inactive) | 59.8 µM (inactive) | 72.8 µM (inactive) | 53.2 µM (inactive) | 65 µM (inactive) | > 55.7 µM (inactive) | 25.9 µM (inactive) | 57.9 µM (inactive) | 47.6 µM (inactive) | 2.2 µM (inactive) | > 60.5 µM (inactive) | 72.3 µM (inactive) | > 100 µM (inactive) | 56 µM (inactive) | 50.7 µM (inactive) | > 80.5 µM (inactive) |
| CC(C)=CCC[C@@H](C)C1=C(O)C(=O)C(C)=C(Nc2ccccc2I)C1=O | 15.5 µM (inactive) | 3.41 µM (inactive) | 22.1 µM (inactive) | 5.73 µM (inactive) | 6.14 µM (inactive) | 18.5 µM (inactive) | 12.5 µM (inactive) | 2.22 µM (inactive) | 10.1 µM (inactive) | 7.59 µM (inactive) | 23.2 µM (inactive) | 16.3 µM (inactive) | 7.55 µM (inactive) | 10.1 µM (inactive) | 1.3 µM (inactive) | 16.4 µM (inactive) | 13.5 µM (inactive) | 9.27 µM (inactive) | 3.03 µM (inactive) | 21.2 µM (inactive) |
| CC(C)[C@@H]1CC[C@@H](C)C[C@H]1OC(=O)/C=C1\C(C(=O)O[C@@H]2C[C@H](C)CC[C@H]2C(C)C)[C@H]2C=C[C@@H]1O2 (stereo not given in full) | 64.3 µM (inactive) | > 100 µM (inactive) | > 100 µM (inactive) | 34.1 µM (inactive) | > 100 µM (inactive) | > 100 µM (inactive) | 33.4 µM (inactive) | 35.8 µM (inactive) | 37.9 µM (inactive) | > 100 µM (inactive) | 25.1 µM (inactive) | 35 µM (inactive) | 87.7 µM (inactive) | > 100 µM (inactive) | 43 µM (inactive) | 27.1 µM (inactive) | 66.5 µM (inactive) | 92.5 µM (inactive) | 23.4 µM (inactive) | 83.6 µM (inactive) |
| Cc1ccc(N/N=C2\C3=C(CCC(C)(C)O3)C(=O)c3ccccc32)cc1 | 24.7 µM (inactive) | 29.1 µM (inactive) | 26.8 µM (inactive) | 10.3 µM (inactive) | 19.2 µM (inactive) | > 100 µM (inactive) | 32.4 µM (inactive) | 28.8 µM (inactive) | 17.4 µM (inactive) | 20.6 µM (inactive) | 13.7 µM (inactive) | 11 µM (inactive) | 21.8 µM (inactive) | 23.4 µM (inactive) | 16.5 µM (inactive) | 23.9 µM (inactive) | 28 µM (inactive) | 14.9 µM (inactive) | 15.1 µM (inactive) | 4.43 µM (inactive) |
| COC(=O)[C@H](C)N1C(=O)N[C@@H](C(C)C)C1=O | > 100 µM (inactive) | > 100 µM (inactive) | > 100 µM (inactive) | > 100 µM (inactive) | 82 µM (inactive) | > 100 µM (inactive) | > 100 µM (inactive) | > 100 µM (inactive) | > 100 µM (inactive) | > 100 µM (inactive) | > 100 µM (inactive) | > 100 µM (inactive) | > 100 µM (inactive) | > 100 µM (inactive) | > 100 µM (inactive) | > 100 µM (inactive) | > 100 µM (inactive) | > 100 µM (inactive) | > 100 µM (inactive) | > 100 µM (inactive) |
| CC1C(c2ccccc2O)c2cc3c(cc2OC1N1CCOCC1)OCO3 (stereo not given) | 21.2 µM (inactive) | 27.7 µM (inactive) | 30.3 µM (inactive) | 18 µM (inactive) | 27.8 µM (inactive) | 40.1 µM (inactive) | 22.1 µM (inactive) | 25.8 µM (inactive) | 20.6 µM (inactive) | 18.5 µM (inactive) | 33 µM (inactive) | 19.6 µM (inactive) | 27.3 µM (inactive) | 26.7 µM (inactive) | 12.5 µM (inactive) | 29.4 µM (inactive) | 34.7 µM (inactive) | 26.2 µM (inactive) | 20.7 µM (inactive) | 35.2 µM (inactive) |
| Cc1ccc2c(c1)C(=O)C(Cc1ccccc1C(=O)O)C2 (stereo not given) | > 100 µM (inactive) | > 100 µM (inactive) | > 100 µM (inactive) | > 100 µM (inactive) | > 100 µM (inactive) | > 100 µM (inactive) | > 100 µM (inactive) | > 100 µM (inactive) | > 100 µM (inactive) | > 100 µM (inactive) | > 100 µM (inactive) | > 100 µM (inactive) | > 100 µM (inactive) | > 100 µM (inactive) | > 100 µM (inactive) | > 100 µM (inactive) | > 100 µM (inactive) | > 100 µM (inactive) | > 100 µM (inactive) | > 100 µM (inactive) |
| Cc1nnc(-n2c(O)cc(=O)n(-c3ccccc3)c2=S)nc1/C=C/c1ccc(N(C)C)cc1 | 7.23 µM (inactive) | 5.98 µM (inactive) | > 39.4 µM (inactive) | 4.32 µM (inactive) | 4.38 µM (inactive) | 11.7 µM (inactive) | 5.81 µM (inactive) | 15.6 µM (inactive) | 8.79 µM (inactive) | 5.86 µM (inactive) | 3.42 µM (inactive) | 15.5 µM (inactive) | 7.05 µM (inactive) | 4.11 µM (inactive) | 5.02 µM (inactive) | 9.23 µM (inactive) | 12.3 µM (inactive) | 6.53 µM (inactive) | 8.2 µM (inactive) | 9.25 µM (inactive) |
| COc1oc(C2C/C(=C/C(C)=C/C(C)=C/C(C)=C/c3ccc([N+](=O)[O-])cc3)CO2)c(C)c(=O)c1C (stereo not given) | 3.55 µM (inactive) | 13.2 µM (inactive) | 10 µM (inactive) | 4.02 µM (inactive) | 15.4 µM (inactive) | 12.9 µM (inactive) | < 0.01 µM (active) | 1.67 µM (inactive) | 1.26 µM (inactive) | 19.9 µM (inactive) | 1.59 µM (inactive) | 5.32 µM (inactive) | 1.58 µM (inactive) | 5.2 µM (inactive) | < 0.01 µM (active) | 1.12 µM (active) | 5.64 µM (inactive) | 5 µM (inactive) | 2.63 µM (inactive) | 2.74 µM (inactive) |
| CC(=O)OC1CC[C@]2(C)C3CC[C@@]4(C)C(CCC4[C@H](C)CCCC(C)C)[C@@H]3CCC2(Br)C1 (stereo not given in full) | 9.62 µM (inactive) | 11.9 µM (inactive) | 12.8 µM (inactive) | 11.6 µM (inactive) | > 50 µM (inactive) | > 50 µM (inactive) | 15.5 µM (inactive) | 9.98 µM (inactive) | 39.7 µM (inactive) | > 50 µM (inactive) | 10.5 µM (inactive) | 31.7 µM (inactive) | 21.4 µM (inactive) | 14 µM (inactive) | 9.44 µM (inactive) | 9.91 µM (inactive) | 8.49 µM (inactive) | 21 µM (inactive) | 10.2 µM (inactive) | 20.1 µM (inactive) |
| O=C(/C=C/c1ccccc1)Oc1ccc(C(=O)/C=C/c2ccccc2)cc1 | 13.9 µM (inactive) | 11.5 µM (inactive) | 14.5 µM (inactive) | 4.98 µM (inactive) | 12.5 µM (inactive) | 21.4 µM (inactive) | 3.4 µM (inactive) | 11.2 µM (inactive) | 8.87 µM (inactive) | 12.9 µM (inactive) | 6.08 µM (inactive) | 13.6 µM (inactive) | 5.4 µM (inactive) | 10.4 µM (inactive) | 2.1 µM (inactive) | 11.9 µM (inactive) | 6.53 µM (inactive) | 12.9 µM (inactive) | 3.3 µM (inactive) | 6.3 µM (inactive) |
